Assay results as given in the supplement of paper PMC10307832.

Tests used:
Test in all cases: relative viability (nuclei count vs DMSO), 5 days (fraction); higher = more cells survive
CAP-232 + AZD7762 = compound: C[C@H]([C@@H](C(=O)N)NC(=O)[C@@H]1CSSC[C@@H](C(=O)N[C@H](C(=O)N[C@@H](C(=O)N[C@H](C(=O)N1)CCCCN)CC2=CNC3=CC=CC=C32)CC4=CC=C(C=C4)O)NC(=O)[C@@H](CC5=CC=CC=C5)N)O [CAP-232] + NC(=O)Nc1cc(-c2cccc(F)c2)sc1C(=O)N[C@H]1CCCNC1 [AZD7762] (partner 0.2 µM)
In short: (§1)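 Nuclei were stained with Hoechst during a one-step fixation (final 0.05% Triton X-100, 1% formaldehyde, 1 ug/ml Hoechst) carried out 5 days after dosing, then counted on 4× images. The cells, lung cancer lines in 1536-well plates, had been dosed by pin tool the day after seeding with one drug alone or a fixed anchor-drug dose plus five library-drug doses (not always all listed) in √10 steps. Relative viability is the nuclei count in treated wells divided by that in vehicle wells, and each value is the median of duplicate plates.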

CAP-232 + Linsitinib = compound: C[C@H]([C@@H](C(=O)N)NC(=O)[C@@H]1CSSC[C@@H](C(=O)N[C@H](C(=O)N[C@@H](C(=O)N[C@H](C(=O)N1)CCCCN)CC2=CNC3=CC=CC=C32)CC4=CC=C(C=C4)O)NC(=O)[C@@H](CC5=CC=CC=C5)N)O [CAP-232] + C[C@]1(O)C[C@@H](c2nc(-c3ccc4ccc(-c5ccccc5)nc4c3)c3c(N)nccn32)C1 [Linsitinib] (partner 1 µM)
In short: as §1

CAP-232 + Olaparib = compound: C[C@H]([C@@H](C(=O)N)NC(=O)[C@@H]1CSSC[C@@H](C(=O)N[C@H](C(=O)N[C@@H](C(=O)N[C@H](C(=O)N1)CCCCN)CC2=CNC3=CC=CC=C32)CC4=CC=C(C=C4)O)NC(=O)[C@@H](CC5=CC=CC=C5)N)O [CAP-232] + O=C(c1cc(Cc2n[nH]c(=O)c3ccccc23)ccc1F)N1CCN(C(=O)C2CC2)CC1 [Olaparib] (partner 8 µM)
In short: as §1

CAP-232 + Palbociclib = compound: C[C@H]([C@@H](C(=O)N)NC(=O)[C@@H]1CSSC[C@@H](C(=O)N[C@H](C(=O)N[C@@H](C(=O)N[C@H](C(=O)N1)CCCCN)CC2=CNC3=CC=CC=C32)CC4=CC=C(C=C4)O)NC(=O)[C@@H](CC5=CC=CC=C5)N)O [CAP-232] + CC(=O)c1c(C)c2cnc(Nc3ccc(N4CCNCC4)cn3)nc2n(C2CCCC2)c1=O [Palbociclib] (partner 0.5 µM)
In short: as §1

CAP-232 + Luminespib = compound: C[C@H]([C@@H](C(=O)N)NC(=O)[C@@H]1CSSC[C@@H](C(=O)N[C@H](C(=O)N[C@@H](C(=O)N[C@H](C(=O)N1)CCCCN)CC2=CNC3=CC=CC=C32)CC4=CC=C(C=C4)O)NC(=O)[C@@H](CC5=CC=CC=C5)N)O [CAP-232] + CCNC(=O)c1noc(-c2cc(C(C)C)c(O)cc2O)c1-c1ccc(CN2CCOCC2)cc1 [Luminespib] (partner 0.01 µM)
In short: as §1

Cell Line | relative viability (CAP-232 + AZD7762; first compound 0.4 µM) | relative viability (CAP-232 + AZD7762; first compound 1.265 µM) | relative viability (CAP-232 + AZD7762; first compound 4 µM) | relative viability (CAP-232 + AZD7762; first compound 12.65 µM) | relative viability (CAP-232 + Linsitinib; first compound 0.4 µM) | relative viability (CAP-232 + Linsitinib; first compound 1.265 µM) | relative viability (CAP-232 + Linsitinib; first compound 4 µM) | relative viability (CAP-232 + Linsitinib; first compound 12.65 µM) | relative viability (CAP-232 + Olaparib; first compound 0.4 µM) | relative viability (CAP-232 + Olaparib; first compound 1.265 µM) | relative viability (CAP-232 + Olaparib; first compound 4 µM) | relative viability (CAP-232 + Olaparib; first compound 12.65 µM) | relative viability (CAP-232 + Palbociclib; first compound 0.4 µM) | relative viability (CAP-232 + Palbociclib; first compound 1.265 µM) | relative viability (CAP-232 + Palbociclib; first compound 4 µM) | relative viability (CAP-232 + Palbociclib; first compound 12.65 µM) | relative viability (CAP-232 + Luminespib; first compound 0.4 µM) | relative viability (CAP-232 + Luminespib; first compound 1.265 µM) | relative viability (CAP-232 + Luminespib; first compound 4 µM) | relative viability (CAP-232 + Luminespib; first compound 12.65 µM)
HCC-366 | 0.399 | 0.328 | 0.308 | 0.374 | 0.745 | 0.628 | 0.824 | 0.537 | 0.4 | 0.383 | 0.289 | 0.299 | 0.454 | 0.362 | 0.41 | 0.331 |  |  |  | 
IA-LM |  |  |  |  | 0.828 | 0.611 | 0.711 | 0.394 | 0.784 | 0.86 | 0.993 | 0.405 |  |  |  |  |  |  |  | 
NCI-H520 |  |  |  |  | 1.06 | 0.969 | 1.04 | 0.563 | 0.349 | 0.304 | 0.321 | 0.303 | 0.241 | 0.224 | 0.249 | 0.234 | 0.22 | 0.206 | 0.184 | 0.208
NCI-H522 | 0.876 | 1.08 | 0.926 | 1.04 |  |  |  |  | 0.78 | 0.587 | 0.638 | 0.789 | 0.982 | 0.929 | 1.05 | 0.848 | 1.08 | 1.11 | 1.15 | 1.3
NCI-H596 | 1.1 | 1.13 | 1.05 | 1.09 | 1.05 | 1.05 | 1.14 | 1.06 | 0.713 | 0.612 | 0.583 | 0.641 |  |  |  |  | 1.03 | 1.03 | 0.988 | 0.901
NCI-H661 |  |  |  |  | 0.488 | 0.659 | 0.575 | 0.462 | 0.768 | 0.771 | 0.8 | 0.683 | 0.415 | 0.403 | 0.433 | 0.35 | 0.954 | 0.907 | 0.883 | 0.719
NCI-H1563 |  |  |  |  | 1.36 | 1.12 | 1.21 | 0.829 |  |  |  |  |  |  |  |  | 0.461 | 0.52 | 0.455 | 0.462
NCI-H1650 |  |  |  |  |  |  |  |  | 1.04 | 0.799 | 0.836 | 0.493 | 0.306 | 0.304 | 0.38 | 0.243 | 0.195 | 0.197 | 0.214 | 0.126
NCI-H1703 | 0.124 |  | 0.143 | 0.146 | 0.489 | 0.642 | 0.933 | 0.873 | 0.388 | 0.468 | 0.315 | 0.388 |  |  |  |  |  |  |  | 
NCI-H2009 |  |  |  |  | 1.2 | 1.18 | 1.22 | 1.09 | 0.799 | 0.684 | 0.74 | 0.52 | 0.181 | 0.244 | 0.175 | 0.153 | 1.02 | 0.975 | 1 | 0.95
NCI-H2023 |  |  |  |  | 0.659 | 0.615 | 0.697 | 0.249 | 0.485 | 0.498 | 0.497 | 0.326 | 0.377 | 0.353 | 0.346 | 0.157 | 0.917 | 0.725 | 0.69 | 0.232
NCI-H2170 | 0.915 | 0.907 | 0.906 | 0.846 |  |  |  |  | 0.622 | 0.588 | 0.738 | 0.636 | 0.358 | 0.38 | 0.429 | 0.424 | 0.777 | 0.866 | 0.674 | 0.826
NCI-H2228 |  |  |  |  | 0.596 | 0.581 | 0.521 | 0.646 | 0.766 | 0.73 | 0.92 | 0.361 | 1.06 | 0.803 | 0.971 | 0.632 | 0.142 | 0.128 | 0.189 | 0.177
NCI-H2342 | 0.478 | 0.539 | 0.586 | 0.574 |  |  |  |  | 0.447 | 0.441 | 0.46 | 0.396 | 0.45 | 0.509 | 0.497 | 0.487 | 0.786 | 0.765 | 0.719 | 0.699
SK-LU-1 |  |  |  |  | 1.06 | 1.2 | 1.15 | 1.06 | 0.388 | 0.44 | 0.412 | 0.408 | 0.375 | 0.398 | 0.405 | 0.364 | 0.198 | 0.211 | 0.183 | 0.207
SK-MES-1 |  |  |  |  | 1.09 | 1.14 | 1 | 1.01 | 0.747 | 0.718 | 0.762 | 0.607 | 0.324 | 0.292 | 0.278 | 0.258 | 0.726 | 0.889 | 0.888 | 0.531
SW 900 | 0.666 | 0.604 | 0.515 | 0.547 |  |  |  |  | 0.766 | 0.883 | 0.698 | 0.99 | 0.528 | 0.481 | 0.512 | 0.465 | 0.171 | 0.185 | 0.187 | 0.169
SW 1573 |  |  |  |  | 0.751 | 0.781 | 0.731 | 0.683 | 0.395 | 0.416 | 0.469 | 0.356 | 0.313 | 0.392 | 0.406 | 0.201 | 0.166 | 0.323 | 0.214 | 0.161
UMC-11 |  |  |  |  | 1.13 | 1 | 1.14 | 1.1 | 0.358 | 0.339 | 0.374 | 0.248 | 0.346 | 0.349 | 0.311 | 0.341 | 0.964 | 1.07 | 1.07 | 0.994
